Active and inactive are the calls of the source. The rule behind the calls is not given here.
What was measured:
[1] = system: Escherichia coli; experiment: Antimicrobial activity against […] producing Escherichia coli assessed as percent susceptible isolates by disk diffusion method; type: functional
[2] = system: Klebsiella pneumoniae; experiment: Antimicrobial activity against cefotaxime-, ceftriaxone-, cefepime-, ceftazidime-, and aztreonam-nonsusceptible Klebsiella pneumoniae assessed as percent susceptible isolates by disk diffusion method; type: functional
[3] = system: Staphylococcus saprophyticus; experiment: Antimicrobial activity against Staphylococcus saprophyticus obtained from urine sample of patient assessed as percent susceptible isolates by disk diffusion method; type: functional
[4] = system: Streptococcus agalactiae; experiment: Antimicrobial activity against Streptococcus agalactiae obtained from urine sample of patient assessed as percent susceptible isolates by disk diffusion method; type: functional
[5] = system: Klebsiella pneumoniae; experiment: Antimicrobial activity against carbapenemase-nonsusceptible Klebsiella pneumoniae assessed as percent susceptible isolates by disk diffusion method; type: functional
[6] = system: Klebsiella oxytoca; experiment: Antimicrobial activity against […] producing Klebsiella oxytoca assessed as percent susceptible isolates by disk diffusion method; type: functional
[7] = system: Serratia marcescens; experiment: Antimicrobial activity against Serratia marcescens obtained from urine sample of patient assessed as percent susceptible isolates by disk diffusion method; type: functional
[8] = system: Escherichia coli; experiment: Antimicrobial activity against Escherichia coli obtained from urine sample of patient assessed as percent susceptible isolates by disk diffusion method; type: functional
[9] = system: Enterococcus faecium; experiment: Antimicrobial activity against Enterococcus faecium obtained from urine sample of patient assessed as percent susceptible isolates by disk diffusion method; type: functional
[10] = system: Enterobacter sp.; experiment: Antimicrobial activity against Enterobacter sp. obtained from urine sample of patient assessed as percent susceptible isolates by disk diffusion method; type: functional
[11] = system: Pseudomonas aeruginosa; experiment: Antimicrobial activity against carbapenemase-nonsusceptible Pseudomonas aeruginosa assessed as percent susceptible isolates by disk diffusion method; type: functional
[12] = system: Klebsiella pneumoniae; experiment: Antimicrobial activity against […] producing Klebsiella pneumoniae assessed as percent susceptible isolates by disk diffusion method; type: functional
[13] = system: Stenotrophomonas maltophilia; experiment: Antimicrobial activity against Stenotrophomonas maltophilia obtained from urine sample of patient assessed as percent susceptible isolates by disk diffusion method; type: functional
[14] = system: Pseudomonas aeruginosa; experiment: Antimicrobial activity against Pseudomonas aeruginosa obtained from urine sample of patient assessed as percent susceptible isolates by disk diffusion method; type: functional
[15] = system: Staphylococcus epidermidis; experiment: Antimicrobial activity against Staphylococcus epidermidis obtained from urine sample of patient assessed as percent susceptible isolates by disk diffusion method; type: functional, organism-based
[16] = system: Proteus mirabilis; experiment: Antimicrobial activity against Proteus mirabilis obtained from urine sample of patient assessed as percent susceptible isolates by disk diffusion method; type: functional
[17] = system: Klebsiella pneumoniae; experiment: Antimicrobial activity against colistin-nonsusceptible Klebsiella pneumoniae assessed as percent susceptible isolates by disk diffusion method; type: functional
[18] = system: Staphylococcus aureus; experiment: Antimicrobial activity against Staphylococcus aureus obtained from urine sample of patient assessed as percent susceptible isolates by disk diffusion method; type: functional
[19] = system: Enterococcus faecalis; experiment: Antimicrobial activity against Enterococcus faecalis obtained from urine sample of patient assessed as percent susceptible isolates by disk diffusion method; type: functional
[20] = system: Acinetobacter baumannii; experiment: Antimicrobial activity against Acinetobacter baumannii obtained from urine sample of patient assessed as percent susceptible isolates by disk diffusion method; type: functional
[21] = system: Pseudomonas aeruginosa; experiment: Antimicrobial activity against cefotaxime-, ceftriaxone-, cefepime-, ceftazidime-, and aztreonam-nonsusceptible Pseudomonas aeruginosa assessed as percent susceptible isolates by disk diffusion method; type: functional
[22] = system: Klebsiella pneumoniae; experiment: Antimicrobial activity against Klebsiella pneumoniae obtained from urine sample of patient assessed as percent susceptible isolates by disk diffusion method; type: functional
[23] = system: Escherichia coli; experiment: Antimicrobial activity against cefotaxime-, ceftriaxone-, cefepime-, ceftazidime-, and aztreonam-nonsusceptible Escherichia coli assessed as percent susceptible isolates by disk diffusion method; type: functional
[24] = system: Klebsiella pneumoniae; experiment: Antimicrobial activity against carbapenemase producing Klebsiella pneumoniae assessed as percent susceptible isolates by disk diffusion method; type: functional
[25] = system: Salmonella sp.; experiment: Antimicrobial activity against Salmonella sp. obtained from urine sample of patient assessed as percent susceptible isolates by disk diffusion method; type: functional
[26] = system: Enterobacter sp.; experiment: Antimicrobial activity against cefotaxime-, ceftriaxone-, cefepime-, ceftazidime-, and aztreonam-nonsusceptible Enterobacter sp. assessed as percent susceptible isolates by disk diffusion method; type: functional

C[C@@H]1O[C@@H]1P(=O)(O)O [FOSFOMYCIN]
Activity [1]: 100% | Activity [2]: 75% | Activity [3]: 100% | Activity [4]: 50% | Activity [5]: 60% | Activity [6]: 0% | Activity [7]: 66.6% | Activity [8]: 100% | Activity [9]: 0% | Activity [10]: 75% | Activity [11]: 88.8% | Activity [12]: 100% | Activity [13]: 66.6% | Activity [14]: 85% | Activity [15]: Active | Activity [16]: 96.7% | Activity [17]: 58.3% | Activity [18]: 100% | Activity [19]: 91.8% | Activity [20]: 9% | Activity [21]: 17% | Activity [22]: 82.3% | Activity [23]: 100% | Activity [24]: 60% | Activity [25]: 66.6% | Activity [26]: 100%
